Our source for the absorption maximum values is the Deep4Chem optical property database.

This data set can be described thus: solvent given as SMILES.

Compound `C#CCOc1ccc(/C=C/C2=[N+]3C(=C(c4ccc(N(CC)CC)cc4)c4c(C)cc(C)n4[B-]3(F)F)C(C)=C2)cc1` yielded an absorption maximum (in CO) of 568 nm.
Regarding `CC1(C)CC[N+]2=c3c(cc4c(c31)Oc1cc3c(cc1C=4c1ccccc1C(=O)O)C(c1ccccc1C(=O)O)=c1cc4c5c(c1O3)C(C)(C)CC[N+]=5CCC4)CCC2`, the absorption maximum (in ClC(Cl)Cl) came out at 611 nm.
As to `c1ccc(-c2ccc(-c3ccc(-c4cc(-c5ccc(-c6ccc(-c7ccccc7)cc6)cc5)cc(-c5ccc(-c6ccc(-c7ccccc7)cc6)cc5)c4)cc3)cc2)cc1`, the absorption maximum (in C1COCCO1) was 306.5 nm.
On to `Fc1ccccc1N1c2c(sc3ccccc23)Sc2sc3ccccc3c21`, for which, under “in ClCCl”, the absorption maximum came to 353 nm.
On to `COc1ccc(/C=C(\C)c2nc3ccccc3o2)cc1`, for which the absorption maximum runs as follows: (in C1CCCCC1) 320 nm; (in CO) 325 nm.
`c1ccc(-c2cc3cccc[n+]3[b-]3c(-c4cccc5[b-]4[n+]4ccccc4cc5-c4ccccc4)cccc32)cc1` showed an absorption maximum (in C1CCCCC1) of 449 nm.
Take `CC[N+]1(CC)CN2C(C)=CC(C)=C(C(=O)[O-])C2=N1`: the absorption maximum is 361 nm (in CN(C)C=O) and 338 nm (in O).
Consider `CN(C)c1ccc(C2=Nc3sc4cc(C(F)(F)F)ccc4[n+]3[B-](F)(F)O2)cc1`, for which the absorption maximum by setting is: (in C1CCOC1) 430 nm; (in CC#N) 427 nm; (in CC(C)=O) 431 nm; (in Cc1ccccc1) 428 nm; (in ClCCl) 431 nm.
The compound `COc1ccc(/C=C/C2=CC(c3ccccc3)=[O+][B-](F)(F)O2)cc1` yielded an absorption maximum (in ClCCl) of 444 nm.
Where the note is “in ClC(Cl)Cl”, `CCCCCCCCC1(CCCCCCCC)c2cc3c(cc2-c2sc(-c4ccc(/C=C5\SC(N6CCCCC6)=NC5=O)c5nsnc45)cc21)C(CCCCCCCC)(CCCCCCCC)c1cc(-c2ccc(/C=C4\SC(N5CCCCC5)=NC4=O)c4nsnc24)sc1-3` yielded an absorption maximum of 606 nm.
Under “in CN(C)C=O”, `Cc1nc2cccc(-c3nc4ccc(Cl)cc4o3)c2c(=O)[nH]1` had an absorption maximum of 310 nm.
With `F[B-]1(F)OC(c2ccc(Br)cc2)=Cc2ccc3ccccc3[n+]21`, where the note is “in ClC(Cl)Cl”, the absorption maximum is 430 nm.
Take `CCOC(=O)c1c(-c2cc3ccccc3oc2=O)nn(-c2ccc(OC)cc2)c1C(=O)OCC`: the absorption maximum (in ClCCl) turned out to be 323 nm.
For the setting “in c1ccccc1”, `O=c1oc2ccccc2nc1-c1ccccc1` had an absorption maximum of 332 nm.
As to `C(#Cc1cccc2cc(-c3ccccc3)c3cc(-c4cc[b-]5c(c4)c(-c4ccccc4)cc4cccc(C#Cc6ccccc6)[n+]54)cc[b-]3[n+]12)c1ccccc1`, the absorption maximum (in C1CCCCC1) was found to be 546 nm.
`c1ccc(-n2c(-c3ccccc3-n3c4ccccc4c4ccccc43)nc3ccccc32)cc1` returned an absorption maximum (in C1CCOC1) of 352 nm.
As to `COCCOc1cc(C=O)c(OCCOC)cc1C=O`, the absorption maximum amounted to 393 nm (in CC(C)(C)O); 391 nm (in CC(C)CO); 390 nm (in CC(C)O); 363 nm (in CCCCO); 363 nm (in CCCO); 362 nm (in CCO). Also, the absorption maximum runs as follows: (in CN(C)C=O) 392 nm; (in CNC=O) 351 nm; (in CO) 353 nm; (in NC=O) 354 nm; (in O) 391 nm.
For the compound `CN1/C(=C/C=C(/C=C/c2sc3ccccc3[n+]2C)c2ccc(C(F)(F)F)cc2)Sc2ccccc21`, the absorption maximum turned out to be 646 nm (in CCO), 643 nm (in CO), 652 nm (in CS(C)=O) and 639 nm (in O).
As to `COc1cc2c(cc1OC)C1=C[C@H](c3ccc(Cl)cc3)C3(C(C#N)=C(C#N)N1CC2)c1cc(Cl)ccc1-c1ccc(Cl)cc13`, the absorption maximum (in ClCCl) came to 314 nm.
Regarding `C/C(=C\c1ccccc1)c1nc2ccccc2o1`, the absorption maximum reads like this: (in C1CCCCC1) 315 nm; (in CO) 315 nm.
